Consider 1 compound from patent publication US10414741B2, “Amorphous vortioxetine and salts thereof” (CADILA HEALTHCARE LIMITED, priority 2013, dated 2019).

The nature of the data set: stability of amorphous form under normal stability conditions. The data set is classed as physicochemical. The text has this:
Therefore, there is no physical change observed from amorphous form to crystalline form during the stability.
In further aspect, the stable amorphous vortioxetine free base or vortioxetine hydrobromide can be stored under nitrogen atmosphere and packed in a double polythene bag tied with a thread, keeping primary packing containing amorphous vortioxetine or vortioxetine hydrobromide inside a black color polyethylene bag containing oxygen busters and sealing it, placing above the double polyethylene bag inside a triple laminated bag optionally containing oxygen busters and sealing it, and placing the sealed triple laminated bag inside a closed high density polyethylene (HDPE) container and storing in controlled environment chamber at 25° C. and/or 40° C.

For `Cc1ccc(Sc2ccccc2N2CCNCC2)c(C)c1` [amorphous vortioxetine free base, 1-{2-[(2,4-dimethylphenyl)sulfanyl]phenyl}piperazine], the “stability of amorphous form (physical change from amorphous form to crystalline form)” value is given as “stable under normal stability conditions”.
